From patent US9409905B2, “Antibacterial compounds and methods for use” (PTC THERAPEUTICS, INC., priority 2011, dated 2016)
≈ marks a conversion by molar mass, not a printed value.

Experiments:
[1] = system: Pseudomonas aeruginosa (P. aeruginosa) 27853; test: Antibacterial activity, MIC (Table 5); type: cell-based; settings: P. aeruginosa 27853, read-out: MIC, 27853
How it was run: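 Activity was measured by microbroth dilution. The MIC, in μg/mL, is the lowest drug concentration that prevents macroscopically visible growth under the test conditions.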

[2] = system: Escherichia coli (E. coli) BAS849; test: Antibacterial activity, microbroth dilution MIC (Table 1); type: cell-based; settings: microbroth dilution, super sensitive Gram-negative E. coli BAS849, read-out: MIC, BAS849
How it was run: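 Broth microdilution against S. aureus 29213, E. coli 25922 and hypersensitive E. coli BAS849. MIC in μg/mL is the lowest drug concentration preventing macroscopically visible growth under test conditions.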

[3] = system: Staphylococcus aureus (S. aureus) 29213; test: as above; type: cell-based; settings: microbroth dilution, Gram-positive S. aureus 29213, read-out: MIC, 29213
How it was run: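 Microbroth dilution was used. MIC, in μg/mL, is the lowest drug concentration preventing macroscopically visible growth under the test conditions.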

K. pneumoniae MXX1232 = test: Antibacterial activity, MIC, resistant strain (Table 4); type: cell-based; settings: Klebsiella pneumoniae, MXX1232; resistant K. pneumoniae MMX1232, multi-drug resistant clinical isolate; read-out: MIC, MMX1232
How it was run: (§1)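 MIC (μg/mL) by microbroth dilution, taken as the lowest drug concentration preventing macroscopically visible growth. MXX strains are multi-drug resistant clinical isolates.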

A. baumannii MXX2240 = test: as above; type: cell-based; settings: Acinetobacter baumannii, MXX2240; resistant A. baumannii MMX2240, multi-drug resistant clinical isolate; read-out: MIC, MMX2240
How it was run: as §1

E. coli 25922 = test: Antibacterial activity, microbroth dilution MIC (Table 1); type: cell-based, Escherichia coli; settings: Escherichia coli; microbroth dilution; control Gram-negative E. coli 25922 strain; read-out: MIC, 25922
How it was run: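 In a microbroth dilution test, the minimum inhibitory concentration was defined as the lowest compound level preventing growth seen by eye, and was given in μg/mL.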

[4] = system: Acinetobacter baumannii (A. baumannii) BAA747; test: Antibacterial activity, MIC (Table 4); type: cell-based; settings: A. baumannii BAA747, read-out: MIC, BAA747
How it was run: as §1

[5] = system: Klebsiella pneumoniae (K. pneumoniae) 35657; test: Antibacterial activity, MIC (Table 4); type: cell-based; settings: K. pneumoniae 35657, read-out: MIC, 35657
How it was run: as §1

E. coli LZ3111 = test: Antibacterial activity, MIC, quinolone resistant strain (Table 2); type: cell-based; settings: Escherichia coli, LZ3111, read-out: MIC LZ3111
How it was run: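 Microbroth dilution method; MIC (μg/mL) is the lowest drug concentration preventing macroscopically visible growth under test conditions.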

| SMILES | MIC [1] [µg/mL] | MIC [2] [µg/mL] | MIC [3] [µg/mL] | MIC (K. pneumoniae MXX1232) [µg/mL] | MIC (A. baumannii MXX2240) [µg/mL] | MIC (E. coli 25922) [µg/mL] | MIC [4] [µg/mL] | MIC [5] [µg/mL] | MIC (E. coli LZ3111) [µg/mL] |
| --- | --- | --- | --- | --- | --- | --- | --- | --- | --- |
| Cc1c(-c2ccc3nn(C)cc3c2)[nH]c(=O)c(C(=O)O)c1O [Cpd 395, 4-hydroxy-5-methyl-6-(2-methyl-2H-indazol-5-yl)-2-oxo-1,2-dihydropyridine-3-carboxylic acid] | 12.5 to 150 (≈ 41.8 to 501 µM) | 12.5 to 150 (≈ 41.8 to 501 µM) | 3.5 to 12.5 (≈ 11.7 to 41.8 µM) | 12.5 to 150 (≈ 41.8 to 501 µM) | 3.5 to 12.5 (≈ 11.7 to 41.8 µM) | 12.5 to 150 (≈ 41.8 to 501 µM) | 12.5 to 150 (≈ 41.8 to 501 µM) | 12.5 to 150 (≈ 41.8 to 501 µM) | 1 to 3.5 (≈ 3.34 to 11.7 µM) |
| CCc1c(-c2ccc3c(c2)cc2n3C[C@H](N)C[C@H]2NC)[nH]c(=O)c(C(=O)O)c1O.Cl.Cl (relative stereo) [Cpd 422, 6-(trans-7-amino-9-(methylamino)-6,7,8,9-tetrahydropyrido[1,2-a]indol-2-yl)-5-ethyl-4-hydroxy-2-oxo-1,2-dihydropyridine-3-carboxylic acid bis-hydrochloride] | 12.5 to 150 | 1 to 3.5 | 12.5 to 150 | 12.5 to 150 | 12.5 to 150 | 12.5 to 150 | 12.5 to 150 | 3.5 to 12.5 | 12.5 to 150 |
| Cc1c(-c2ccc3[nH]ncc3c2)[nH]c(=O)c(C(=O)O)c1O [Cpd 398, 4-hydroxy-6-(1H-indazol-5-yl)-5-methyl-2-oxo-1,2-dihydropyridine-3-carboxylic acid] | 12.5 to 150 (≈ 43.8 to 526 µM) | 12.5 to 150 (≈ 43.8 to 526 µM) | 12.5 to 150 (≈ 43.8 to 526 µM) | 12.5 to 150 (≈ 43.8 to 526 µM) | 12.5 to 150 (≈ 43.8 to 526 µM) | 12.5 to 150 (≈ 43.8 to 526 µM) | 12.5 to 150 (≈ 43.8 to 526 µM) | 12.5 to 150 (≈ 43.8 to 526 µM) | 3.5 to 12.5 (≈ 12.3 to 43.8 µM) |
| CCNCc1c(F)c2cc(-c3[nH]c(=O)c(C(=O)O)c(O)c3CC)ccc2n1C [Cpd 369, 5-ethyl-6-(2-((ethylamino)methyl)-3-fluoro-1-methyl-1H-indol-5-yl)-4-hydroxy-2-oxo-1,2-dihydropyridine-3-carboxylic acid] | 12.5 to 150 (≈ 32.3 to 387 µM) | < 1 | 12.5 to 150 (≈ 32.3 to 387 µM) | 12.5 to 150 (≈ 32.3 to 387 µM) | 3.5 to 12.5 (≈ 9.03 to 32.3 µM) | 1 to 3.5 (≈ 2.58 to 9.03 µM) | 1 to 3.5 (≈ 2.58 to 9.03 µM) | < 1 | 3.5 to 12.5 (≈ 9.03 to 32.3 µM) |
| CCOc1c(-c2ccc3c(ccn3C)c2)[nH]c(=O)c(C(=O)O)c1O [Cpd 378, 4-hydroxy-5-ethoxy-6-(1-methyl-1H-indol-5-yl)-2-oxo-1,2-dihydropyridine-3-carboxylic acid] | 12.5 to 150 (≈ 38.1 to 457 µM) | 3.5 to 12.5 (≈ 10.7 to 38.1 µM) | 12.5 to 150 (≈ 38.1 to 457 µM) | 12.5 to 150 (≈ 38.1 to 457 µM) | 3.5 to 12.5 (≈ 10.7 to 38.1 µM) | 12.5 to 150 (≈ 38.1 to 457 µM) | 12.5 to 150 (≈ 38.1 to 457 µM) | 12.5 to 150 (≈ 38.1 to 457 µM) | 3.5 to 12.5 (≈ 10.7 to 38.1 µM) |
| CCc1c(-c2ccc3cc[nH]c3n2)[nH]c(=O)c(C(=O)O)c1O [Cpd 433, 5-ethyl-4-hydroxy-2-oxo-6-(1H-pyrrolo[2,3-b]pyridin-6-yl)-1,2-dihydropyridine-3-carboxylic acid] | 12.5 to 150 (≈ 41.8 to 501 µM) | < 1 | 12.5 to 150 (≈ 41.8 to 501 µM) | 12.5 to 150 (≈ 41.8 to 501 µM) | 12.5 to 150 (≈ 41.8 to 501 µM) | 12.5 to 150 (≈ 41.8 to 501 µM) | 3.5 to 12.5 (≈ 11.7 to 41.8 µM) | 3.5 to 12.5 (≈ 11.7 to 41.8 µM) | 12.5 to 150 (≈ 41.8 to 501 µM) |
| CCc1c(-c2cc3c(N4CCCC4)nc(C)cn3n2)[nH]c(=O)c(C(=O)O)c1O [Cpd 402, 5-ethyl-4-hydroxy-6-(6-methyl-4-(pyrrolidin-1-yl)pyrazolo[1,5-a]pyrazin-2-yl)-2-oxo-1,2-dihydropyridine-3-carboxylic acid] | 12.5 to 150 (≈ 32.6 to 391 µM) | 12.5 to 150 (≈ 32.6 to 391 µM) | 3.5 to 12.5 (≈ 9.13 to 32.6 µM) | 12.5 to 150 (≈ 32.6 to 391 µM) | 12.5 to 150 (≈ 32.6 to 391 µM) | 12.5 to 150 (≈ 32.6 to 391 µM) | 12.5 to 150 (≈ 32.6 to 391 µM) | 12.5 to 150 (≈ 32.6 to 391 µM) | 12.5 to 150 (≈ 32.6 to 391 µM) |
| CCc1c(-c2cc3ccc(OC)cc3n2C)[nH]c(=O)c(C(=O)O)c1O [Cpd 405, 5-ethyl-4-hydroxy-6-(6-methoxy-1-methyl-1H-indol-2-yl)-2-oxo-1,2-dihydropyridine-3-carboxylic acid] | 12.5 to 150 (≈ 36.5 to 438 µM) | 3.5 to 12.5 (≈ 10.2 to 36.5 µM) | 3.5 to 12.5 (≈ 10.2 to 36.5 µM) | 12.5 to 150 (≈ 36.5 to 438 µM) | 12.5 to 150 (≈ 36.5 to 438 µM) | 12.5 to 150 (≈ 36.5 to 438 µM) | 12.5 to 150 (≈ 36.5 to 438 µM) | 12.5 to 150 (≈ 36.5 to 438 µM) | 12.5 to 150 (≈ 36.5 to 438 µM) |
| CCc1cc(C(=O)O)c(=O)[nH]c1-c1ccc2c(c1)cc(CN1CCOCC1)n2C [Cpd 137, 5-ethyl-6-(1-methyl-2-(morpholinomethyl)-1H-indol-5-yl)-2-oxo-1,2-dihydropyridine-3-carboxylic acid] | 12.5 to 150 (≈ 31.6 to 379 µM) | < 1 | 12.5 to 150 (≈ 31.6 to 379 µM) | 12.5 to 150 (≈ 31.6 to 379 µM) | 12.5 to 150 (≈ 31.6 to 379 µM) | 1 to 3.5 (≈ 2.53 to 8.85 µM) | 3.5 to 12.5 (≈ 8.85 to 31.6 µM) | 1 to 3.5 (≈ 2.53 to 8.85 µM) | 12.5 to 150 (≈ 31.6 to 379 µM) |
| CCc1c(-c2ccc3cnn(C)c3c2)[nH]c(=O)c(C(=O)O)c1O [Cpd 390, 5-ethyl-4-hydroxy-6-(1-methyl-1H-indazol-6-yl)-2-oxo-1,2-dihydropyridine-3-carboxylic acid] | 12.5 to 150 (≈ 39.9 to 479 µM) | 12.5 to 150 (≈ 39.9 to 479 µM) | 12.5 to 150 (≈ 39.9 to 479 µM) | 12.5 to 150 (≈ 39.9 to 479 µM) | 3.5 to 12.5 (≈ 11.2 to 39.9 µM) | 12.5 to 150 (≈ 39.9 to 479 µM) | 12.5 to 150 (≈ 39.9 to 479 µM) | 12.5 to 150 (≈ 39.9 to 479 µM) | 3.5 to 12.5 (≈ 11.2 to 39.9 µM) |
| Cc1c(-c2ccc3c(c2)cc(CNC2CC2)n3C)[nH]c(=O)c(C(=O)O)c1O [Cpd 355, 6-(2-((cyclopropylamino)methyl)-1-methyl-1H-indol-5-yl)-4-hydroxy-5-methyl-2-oxo-1,2-dihydropyridine-3-carboxylic acid] | 12.5 to 150 (≈ 34 to 408 µM) | < 1 | 12.5 to 150 (≈ 34 to 408 µM) | 12.5 to 150 (≈ 34 to 408 µM) | < 1 | 3.5 to 12.5 (≈ 9.53 to 34 µM) | 3.5 to 12.5 (≈ 9.53 to 34 µM) | 3.5 to 12.5 (≈ 9.53 to 34 µM) | < 1 |
| Cc1c(-c2ccc3c(c2)cc2n3CC(N(C)C)C2)[nH]c(=O)c(C(=O)O)c1O.Cl (stereo not drawn) [Cpd 417, 6-(2-(dimethylamino)-2,3-dihydro-1H-pyrrolo[1,2-a]indol-7-yl)-4-hydroxy-5-methyl-2-oxo-1,2-dihydropyridine-3-carboxylic acid hydrochloride] | 12.5 to 150 | 1 to 3.5 | 12.5 to 150 | 12.5 to 150 | < 1 | 12.5 to 150 | 3.5 to 12.5 | 12.5 to 150 | < 1 |
| CCc1c(-c2ccc3c(ccn3C)c2O)[nH]c(=O)c(C(=O)O)c1O [Cpd 374, 5-ethyl-4-hydroxy-6-(4-hydroxy-1-methyl-1H-indol-5-yl)-2-oxo-1,2-dihydropyridine-3-carboxylic acid] | 12.5 to 150 (≈ 38.1 to 457 µM) | 12.5 to 150 (≈ 38.1 to 457 µM) | 12.5 to 150 (≈ 38.1 to 457 µM) | 12.5 to 150 (≈ 38.1 to 457 µM) | 12.5 to 150 (≈ 38.1 to 457 µM) | 12.5 to 150 (≈ 38.1 to 457 µM) | 12.5 to 150 (≈ 38.1 to 457 µM) | 12.5 to 150 (≈ 38.1 to 457 µM) | 12.5 to 150 (≈ 38.1 to 457 µM) |
| CCc1c(-c2ccc3c(c2)cc2n3C[C@H](CN)[C@@H]2NC)[nH]c(=O)c(C(=O)O)c1O.Cl.Cl (relative stereo) [Cpd 421, 6-(cis-2-(aminomethyl)-1-(methylamino)-2,3-dihydro-1H-pyrrolo[1,2-a]indol-7-yl)-5-ethyl-4-hydroxy-2-oxo-1,2-dihydropyridine-3-carboxylic acid bis-hydrochloride] | 12.5 to 150 | 1 to 3.5 | 12.5 to 150 | 12.5 to 150 | 12.5 to 150 | 3.5 to 12.5 | 12.5 to 150 | 12.5 to 150 | 12.5 to 150 |
